For the test, the target named is F508delCFTR (Homo sapiens, UniProt P13569, DEL508-508). Nature of the test: Cell Surface Expression-Horse Radish Peroxidase (CSE-HRP) assay. Type of test: cell-based. To be noted: CFBE4lo-F508delCFTR-HRP cells; for EC50: 18-24 hours at 33° C., 8-point curve, highest concentration 20 μM, luminescence readout; for Emax: maximum % activity at any tested concentration, normalized to on-plate positive control (3 μM Example 1). Details: expressed in transfected cells; host or cells: CFBE41o- human lung derived epithelial cell line, doxycycline-inducible. An outline of the steps: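 Following 18-24 h compound exposure at 33° C. Expression was doxycycline-induced beforehand. % activity versus DMSO and a 3 μM corrector control gave maximum activity and EC50 from a variable-Hill sigmoidal fit.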
Sequence of F508delCFTR (P13569 with tags, fused parts or gaps DEL508-508): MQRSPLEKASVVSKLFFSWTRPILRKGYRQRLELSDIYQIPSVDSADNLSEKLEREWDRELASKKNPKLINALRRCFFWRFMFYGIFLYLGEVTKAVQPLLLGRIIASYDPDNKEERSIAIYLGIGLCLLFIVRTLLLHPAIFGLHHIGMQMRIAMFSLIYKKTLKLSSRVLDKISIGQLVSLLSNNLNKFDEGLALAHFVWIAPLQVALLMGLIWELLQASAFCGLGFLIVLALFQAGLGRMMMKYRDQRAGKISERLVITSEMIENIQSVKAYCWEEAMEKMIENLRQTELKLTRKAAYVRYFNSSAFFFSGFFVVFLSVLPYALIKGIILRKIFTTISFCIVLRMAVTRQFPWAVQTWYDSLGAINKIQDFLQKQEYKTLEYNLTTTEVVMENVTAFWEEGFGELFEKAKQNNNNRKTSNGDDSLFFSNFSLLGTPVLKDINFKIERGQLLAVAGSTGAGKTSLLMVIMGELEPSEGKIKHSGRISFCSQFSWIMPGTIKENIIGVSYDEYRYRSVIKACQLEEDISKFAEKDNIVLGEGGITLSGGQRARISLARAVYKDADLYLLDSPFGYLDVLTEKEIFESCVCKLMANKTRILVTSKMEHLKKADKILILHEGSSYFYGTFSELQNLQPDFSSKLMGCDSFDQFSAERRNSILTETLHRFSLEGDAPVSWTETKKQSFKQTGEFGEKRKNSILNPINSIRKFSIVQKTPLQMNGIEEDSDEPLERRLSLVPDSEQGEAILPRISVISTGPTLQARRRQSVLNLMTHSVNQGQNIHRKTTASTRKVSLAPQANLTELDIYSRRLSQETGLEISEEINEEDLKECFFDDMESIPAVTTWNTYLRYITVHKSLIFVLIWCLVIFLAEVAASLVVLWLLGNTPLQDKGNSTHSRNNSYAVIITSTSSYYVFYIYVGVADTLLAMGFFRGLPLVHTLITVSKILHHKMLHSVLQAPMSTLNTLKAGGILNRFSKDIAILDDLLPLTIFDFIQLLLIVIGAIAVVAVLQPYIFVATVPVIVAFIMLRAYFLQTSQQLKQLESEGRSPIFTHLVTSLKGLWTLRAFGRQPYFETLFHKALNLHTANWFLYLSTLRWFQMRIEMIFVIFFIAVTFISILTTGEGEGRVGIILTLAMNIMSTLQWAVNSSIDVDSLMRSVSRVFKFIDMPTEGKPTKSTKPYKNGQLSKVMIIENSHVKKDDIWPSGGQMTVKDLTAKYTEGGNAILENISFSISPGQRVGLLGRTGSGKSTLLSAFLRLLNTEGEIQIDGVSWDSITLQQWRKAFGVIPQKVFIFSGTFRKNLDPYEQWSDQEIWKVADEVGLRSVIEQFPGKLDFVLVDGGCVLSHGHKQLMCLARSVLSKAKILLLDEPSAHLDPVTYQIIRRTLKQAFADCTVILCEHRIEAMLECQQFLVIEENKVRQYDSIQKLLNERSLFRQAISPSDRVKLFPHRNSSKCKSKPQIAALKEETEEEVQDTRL

SMILES strings stand for the structures.

For `O=C(O)c1ccc2c(c1)OCCC2NC(=O)C1(c2ccc3c(c2)OC(F)(F)O3)CC1` (stereo not shown) [Example 42, 4-({[1-(2,2-difluoro-1,3-benzodioxol-5-yl)cyclopropyl]carbonyl}amino)-3,4-dihydro-2H-chromene-7-carboxylic acid], the concentration for a half-maximal effect (EC50) is no less than 20000 nM and the Emax is 5%.
`Cc1ccc2c(c1)O[C@@H](c1cccc(C(=O)NC3CCC(C)(C(=O)O)C3)c1)C[C@H]2NC(=O)C1(c2ccc3c(c2)OC(F)(F)O3)CC1` (stereo partly drawn) [Example 43, 3-({3-[(2R,4R)-4-({[1-(2,2-difluoro-1,3-benzodioxol-5-yl)cyclopropyl]carbonyl}amino)-7-methyl-3,4-dihydro-2H-chromen-2-yl]benzoyl}amino)-1-methylcyclopentanecarboxylic acid] displayed an EC50 of 850 nM and a maximal response (Emax) of 78%.
For `COc1cccc([C@H]2C[C@@H](NC(=O)C3(c4ccc5c(c4)OC(F)(F)O5)CC3)c3cc(C(=O)O)ccc3O2)c1` [Example 44, (2R,4R)-4-({[1-(2,2-difluoro-1,3-benzodioxol-5-yl)cyclopropyl]carbonyl}amino)-2-(3-methoxyphenyl)-3,4-dihydro-2H-chromene-6-carboxylic acid], in that order: no less than 20000 nM and 14%.
Turning to `COC(=O)c1ccc2c(c1)OCCC2NC(=O)C1(c2ccc3c(c2)OC(F)(F)O3)CC1` (stereo not shown) [Example 45, methyl 4-({[1-(2,2-difluoro-1,3-benzodioxol-5-yl)cyclopropyl]carbonyl}amino)-3,4-dihydro-2H-chromene-7-carboxylate], a half-maximal response (EC50) required 1330 nM and the maximal response (Emax) is 89%.
`COC(=O)c1ccc2c(c1)[C@H](NC(=O)C1(c3ccc4c(c3)OC(F)(F)O4)CC1)C[C@H](C1CCCC(OC)C1)O2` (stereo partly drawn) [Example 46, methyl (2R,4R)-4-({[1-(2,2-difluoro-1,3-benzodioxol-5-yl)cyclopropyl]carbonyl}amino)-2-(3-methoxycyclohexyl)-3,4-dihydro-2H-chromene-6-carboxylate] yielded an EC50 of 5140 nM and an Emax of 27%.
On the same counts, the results for `COC(=O)c1ccc2c(c1)[C@H](NC(=O)C1(c3ccc4c(c3)OC(F)(F)O4)CC1)C[C@H](c1cccc(OC)c1)O2` [Example 47, methyl (2R,4R)-4-({[1-(2,2-difluoro-1,3-benzodioxol-5-yl)cyclopropyl]carbonyl}amino)-2-(3-methoxyphenyl)-3,4-dihydro-2H-chromene-6-carboxylate] are 4000 nM and 43%.
For `Cc1ccc2c(c1)O[C@@H](c1cccc(C(=O)NC[C@@H](O)CO)c1)C[C@H]2NC(=O)C1(c2ccc3c(c2)OC(F)(F)O3)CC1` [Example 48, 3-[(2R,4R)-4-({[1-(2,2-difluoro-1,3-benzodioxol-5-yl)cyclopropyl]carbonyl}amino)-7-methyl-3,4-dihydro-2H-chromen-2-yl]-N-[(2R)-2,3-dihydroxypropyl]benzamide], in that order: 1000 nM and 104%.
For `Cc1ccc2c(c1)O[C@@H](c1cccc(C(=O)N3CC[C@@H](O)C3)c1)C[C@H]2NC(=O)C1(c2ccc3c(c2)OC(F)(F)O3)CC1` [Example 49, 1-(2,2-difluoro-1,3-benzodioxol-5-yl)-N-[(2R,4R)-2-(3-{[(3R)-3-hydroxypyrrolidin-1-yl]carbonyl}phenyl)-7-methyl-3,4-dihydro-2H-chromen-4-yl]cyclopropanecarboxamide], in that order: 970 nM and 105%.
The compound `Cc1ccc2c(c1)O[C@@H](c1cccc(C(=O)NCC(O)C(F)(F)F)c1)C[C@H]2NC(=O)C1(c2ccc3c(c2)OC(F)(F)O3)CC1` (stereo partly drawn) [Example 50, 3-[(2R,4R)-4-({[1-(2,2-difluoro-1,3-benzodioxol-5-yl)cyclopropyl]carbonyl}amino)-7-methyl-3,4-dihydro-2H-chromen-2-yl]-N-(3,3,3-trifluoro-2-hydroxypropyl)benzamide] showed an EC50 of 860 nM and an Emax of 101%.
On to `Cc1ccc2c(c1)O[C@@H](c1cccc(C(=O)NCC(C)(C)O)c1)C[C@H]2NC(=O)C1(c2ccc3c(c2)OC(F)(F)O3)CC1` [Example 51, 3-[(2R,4R)-4-({[1-(2,2-difluoro-1,3-benzodioxol-5-yl)cyclopropyl]carbonyl}amino)-7-methyl-3,4-dihydro-2H-chromen-2-yl]-N-(2-hydroxy-2-methylpropyl)benzamide], for which a half-maximal response (EC50) required 970 nM and the Emax came out at 83%.
On the same counts, the results for `Cc1ccc2c(c1)O[C@@H](c1cccc(C(=O)N3CCCC(CO)C3)c1)C[C@H]2NC(=O)C1(c2ccc3c(c2)OC(F)(F)O3)CC1` (stereo partly drawn) [Example 52, 1-(2,2-difluoro-1,3-benzodioxol-5-yl)-N-[(2R,4R)-2-(3-{[3-(hydroxymethyl)piperidin-1-yl]carbonyl}phenyl)-7-methyl-3,4-dihydro-2H-chromen-4-yl]cyclopropanecarboxamide] are 1010 nM and 93%.
On the same counts, the results for `Cc1ccc2c(c1)O[C@@H](c1cccc(C(=O)N3CCOC(CO)C3)c1)C[C@H]2NC(=O)C1(c2ccc3c(c2)OC(F)(F)O3)CC1` (stereo partly drawn) [Example 53, 1-(2,2-difluoro-1,3-benzodioxol-5-yl)-N-[(2R,4R)-2-(3-{[2-(hydroxymethyl)morpholin-4-yl]carbonyl}phenyl)-7-methyl-3,4-dihydro-2H-chromen-4-yl]cyclopropanecarboxamide] are 1760 nM and 90%.
For `Cc1ccc2c(c1)O[C@@H](c1cccc(C(=O)NCC3(O)CCC3)c1)C[C@H]2NC(=O)C1(c2ccc3c(c2)OC(F)(F)O3)CC1` [Example 54, 3-[(2R,4R)-4-({[1-(2,2-difluoro-1,3-benzodioxol-5-yl)cyclopropyl]carbonyl}amino)-7-methyl-3,4-dihydro-2H-chromen-2-yl]-N-[(1-hydroxycyclobutyl)methyl]benzamide], in that order: 860 nM and 92%.
In turn, `Cc1ccc2c(c1)O[C@@H](c1cccc(C(=O)N3CC(C)(CO)C3)c1)C[C@H]2NC(=O)C1(c2ccc3c(c2)OC(F)(F)O3)CC1` [Example 55, 1-(2,2-difluoro-1,3-benzodioxol-5-yl)-N-[(2R,4R)-2-(3-{[3-(hydroxymethyl)-3-methylazetidin-1-yl]carbonyl}phenyl)-7-methyl-3,4-dihydro-2H-chromen-4-yl]cyclopropanecarboxamide] gave an EC50 of 2110 nM and a maximal response (Emax) of 101%.
For `O=C(NC1CCOc2cc(Br)ccc21)C1(c2ccc3c(c2)OC(F)(F)O3)CC1` (stereo not shown) [Example 56, N-(7-bromo-3,4-dihydro-2H-chromen-4-yl)-1-(2,2-difluoro-1,3-benzodioxol-5-yl)cyclopropanecarboxamide], in that order: 3120 nM and 124%.
As for `O=C(NC1C[C@H](c2cccc(CO)c2)Oc2ccccc21)C1(c2ccc3c(c2)OC(F)(F)O3)CC1` (stereo partly drawn) [Example 58, 1-(2,2-difluoro-1,3-benzodioxol-5-yl)-N-{(2R)-2-[3-(hydroxymethyl)phenyl]-3,4-dihydro-2H-chromen-4-yl}cyclopropanecarboxamide], the EC50 is 2540 nM and the maximal response (Emax) turned out to be 101%.
On the same counts, the results for `COc1ccc2c(c1)OCCC2NC(=O)C1(c2ccc3c(c2)OC(F)(F)O3)CC1` (stereo not shown) [Example 59, 1-(2,2-difluoro-1,3-benzodioxol-5-yl)-N-(7-methoxy-3,4-dihydro-2H-chromen-4-yl)cyclopropanecarboxamide] are 3660 nM and 101%.
On the same counts, the results for `COc1ccc2c(c1)OC(c1ccccc1)CC2NC(=O)C1(c2ccc3c(c2)OC(F)(F)O3)CC1` (stereo not shown) [Example 60, 1-(2,2-difluoro-1,3-benzodioxol-5-yl)-N-(7-methoxy-2-phenyl-3,4-dihydro-2H-chromen-4-yl)cyclopropanecarboxamide] are 700 nM and 131%.
For `COc1ccc2c(c1)OC(c1ccc(Cl)c(Cl)c1)CC2NC(=O)C1(c2ccc3c(c2)OC(F)(F)O3)CC1` (stereo not shown) [Example 61, N-[2-(3,4-dichlorophenyl)-7-methoxy-3,4-dihydro-2H-chromen-4-yl]-1-(2,2-difluoro-1,3-benzodioxol-5-yl)cyclopropanecarboxamide], in that order: 2040 nM and 132%.
`COc1ccc2c(c1)OC(c1ccc(OC)c(OC)c1)CC2NC(=O)C1(c2ccc3c(c2)OC(F)(F)O3)CC1` (stereo not shown) [Example 62, 1-(2,2-difluoro-1,3-benzodioxol-5-yl)-N-[2-(3,4-dimethoxyphenyl)-7-methoxy-3,4-dihydro-2H-chromen-4-yl]cyclopropanecarboxamide] showed an EC50 of 690 nM and an Emax of 135%.
On the same counts, the results for `COc1ccc2c(c1)OC(c1ccc(Cl)cc1)CC2NC(=O)C1(c2ccc3c(c2)OC(F)(F)O3)CC1` (stereo not shown) [Example 63, N-[2-(4-chlorophenyl)-7-methoxy-3,4-dihydro-2H-chromen-4-yl]-1-(2,2-difluoro-1,3-benzodioxol-5-yl)cyclopropanecarboxamide] are 630 nM and 106%.
On the same counts, the results for `O=C(NC1CC(c2ccc(C(F)(F)F)cc2)Oc2ccccc21)C1(c2ccc3c(c2)OC(F)(F)O3)CC1` (stereo not shown) [Example 64, 1-(2,2-difluoro-1,3-benzodioxol-5-yl)-N-{2-[4-(trifluoromethyl)phenyl]-3,4-dihydro-2H-chromen-4-yl}cyclopropanecarboxamide] are 1610 nM and 78%.
`O=C(NC1CC(c2ccccc2Cl)Oc2ccccc21)C1(c2ccc3c(c2)OC(F)(F)O3)CC1` (stereo not shown) [Example 65, N-[2-(2-chlorophenyl)-3,4-dihydro-2H-chromen-4-yl]-1-(2,2-difluoro-1,3-benzodioxol-5-yl)cyclopropanecarboxamide] displayed an EC50 of 10100 nM and an Emax of 45%.

The record behind these values is patent US9642831B2, “Substituted chromanes and method of use” (AbbVie S.á.r.l., priority 2014, dated 2017).
